# Literature values in patent US20060287500A1, “Method for synthesis of C2-symmetric diamino diol mediated by titanium complexes” (priority 2005, published 2006).
# What was measured:
# [1] = system: HIV, SIV, FIV and many of the 150 different clinical mutant strains
# FIV = settings: feline model
# HIV protease = HIV protease (Human immunodeficiency virus type 1 group M subtype B, UniProt P04585); settings: in vitro
# FIV protease = FIV protease (Feline immunodeficiency virus, UniProt P16088); settings: in vitro
compound,measurement,setting,value
CC(C)[C@H](NC(=O)[C@H](C)NC(=O)OCc1ccccc1)C(=O)N[C@@H](Cc1ccccc1)[C@@H](O)[C@H](O)[C@H](Cc1ccccc1)NC(=O)[C@@H](NC(=O)[C@H](C)NC(=O)OCc1ccccc1)C(C)C [TL-3],"effectiveness against HIV, SIV, FIV and clinical mutant strains",[1],equally effective
same,drug resistance developing against the inhibitor,FIV,No evidence for drug resistance developing
same,Ki,HIV protease,0.0015 µM
same,Ki,FIV protease,0.041 µM
